Entries after “also recorded” stand apart in the source; their conditions may differ.
Assays:
5/6 nephrectomy rats = experiment: 5/6 nephrectomy (Nx) rat study of chronic renal failure; assay type: in vivo, rat (inbred Lewis); conditions: 5/6 Nx rats, rhGDF-5 50 μg/kg ip 3 times per week
Procedure: Both sham and 5/6 Nx performed rats were treated 4 weeks post surgery with different reagents as indicated. The effects of the treatment were analyzed every two weeks through blood and urine sample analysis consisting of hematology, serum and urine chemistry and proteinuria. After 10 weeks of treatment, kidney samples were taken from the right kidney and evaluated using histopathology for glomerulorsclerosis, interstitial fibrosis and tubular degemation. All the data were converted to a weighted ranking system from 1 to 10 and averaged for the 10 weeks. A better efficacy from a treatment receives a higher score and the maximum score is the level for sham group. […]
rhGDF-5 was administrated 3 times per week at 50 μg/kg by ip. […] Effects of these treatments on kidney function was evaluated every two weeks by monitoring clinical observations, body weights, urine volume and duration of collection, and clinical pathology parameters through blood and urine sample analysis (hematology, serum chemistry, and urine chemistry). Residual urine samples were also evaluated for protein levels, beginning on Day 28, by AniLytics, Inc. On Day 70, surviving animals were euthanized and subjected to a limited necropsy, consisting of collection of the right kidney (2 sham groups) or the remaining third of the right kidney (all the Nx groups). […]

UUO induced renal injury = experiment: Unilateral Ureter Obstruction (UUO) model, H&E histology renal injury scoring; assay type: in vivo, mice (C57BL/6); conditions: UUO mice, 12 days of treatment, vs vehicle; rhGDF-5 300 μg/kg ip 3x/week, SD282 60 mg/kg gavage twice daily
From the text: The theraputic effects of rhGDF-5 was further tested along with SD282 in Unilateral Ureter Obstruction Model (UUO) in the present invention. Mice were subjected to unilateral ureter obstruction and treatment started on the same day as the UUO surgery. After 12 days of treatment, the obstructed kidneys were harvested for Hematoxylin and Eosin (H&E) staining and RT-PCR analysis. […] CCL2 induces recruitment of monocytes, T lymphocytes, eosinophils, and basophils and is responsible for many inflammatory reactions to disease, and has been linked to recruitment of osteoclast precursors. PDGF plays a role in embryonic development, cell proliferation, cell migration, and angiogenesis. […] The efficacy of rhGDF-5 was further tested along with SD282 in a mouse UUO model. Treatment started on the same day of the UUO, and included rhGDF-5 and SD282. At the end of the 12-day treatment, histology scoring and gene expression analysis was preformed on endpoint measurements. Unilateral Ureter Obstruction Model (“UUO”) was used because it is a commonly used mouse model for progressive tubulointerstitial fibrosis in the kidney. Male C57BL/6 mice were purchased at age 6 to 8 weeks from Jackson Labs (Bar Harbor, Me.). They were housed in an animal facility that was maintained at 25° C. with a 12-hour light-dark cycle. […]

[1] = test system: chemokine ligand 2 (CCL2) gene expression; experiment: UUO model, RT-PCR gene expression analysis of obstructed kidney (CCL2); assay type: in vivo, mice (C57BL/6); conditions: UUO mice, 12 days of treatment, vs controls
From the text: (§1) The theraputic effects of rhGDF-5 was further tested along with SD282 in Unilateral Ureter Obstruction Model (UUO) in the present invention. Mice were subjected to unilateral ureter obstruction and treatment started on the same day as the UUO surgery. After 12 days of treatment, the obstructed kidneys were harvested for Hematoxylin and Eosin (H&E) staining and RT-PCR analysis. […] CCL2 induces recruitment of monocytes, T lymphocytes, eosinophils, and basophils and is responsible for many inflammatory reactions to disease, and has been linked to recruitment of osteoclast precursors. PDGF plays a role in embryonic development, cell proliferation, cell migration, and angiogenesis.
(§2) The efficacy of rhGDF-5 was further tested along with SD282 in a mouse UUO model. Treatment started on the same day of the UUO, and included rhGDF-5 and SD282. At the end of the 12-day treatment, histology scoring and gene expression analysis was preformed on endpoint measurements.
(§3) Experimental animals were treated with rhGDF-5, 3 times per week, via ip injection at 300 μg/kg and SD282, twice, daily through gavage at 60 mg/kg dissolved in 0.5% methylcellulose. Control mice received an equal volume of 0.5% methylcellulose vehicle. Treatment dose was selected based on a review of the literature and represented the highest dose that was free of side effects in other experimental studies. […]

[2] = test system: platelet-derived growth factor (PDGF) gene expression; experiment: UUO model, RT-PCR gene expression analysis of obstructed kidney (PDGF); assay type: in vivo, mice (C57BL/6); conditions: UUO mice, 12 days of treatment, vs controls
From the text: as §1, §2, §3

diabetic rats = experiment: Streptozotocin-induced diabetic nephropathy rat model; assay type: in vivo; conditions: rhGDF-5 300 μg/kg ip 3x per week
Procedure: The efficacy of the combination therapy was tested in a diabetic nephropathy rat model.
Diabetic condition in the animals was induced for 1 week by a single i.v. injection of Streptozotocin. Subsequently, the animals were treated for 14 weeks with or without 300 μg/kg rhGDF-5 (i.p., 3× per week), 10 mg/kg of Enalapril (gavage, once daily), or a combination of the two.
Blood glucose measurements and subcutaneous insulin administrations (as necessary) were carried out thrice weekly to maintain a glucose level between 280 and 400 mg/dL. Urine samples were collected every two weeks; blood samples collected every four weeks for measuring level of urine microalbumin, serum creatinine, blood urea nitrogen, and urine creatinine. On week fourteen, a final set of samples was collected; then the animals were euthanized and subjected to a limited necropsy involving the collection of the kidneys. One kidney from each animal was flash frozen for gene expression analysis as needed and the other preserved in 10% neutral buffered formalin, after which it was examined microscopically.
Histological examination was performed on the kidneys. […] Slides were evaluated on the basis of morphologic changes according to the following grading scheme: 0=within normal limits; 1=minimal; 2=mild; 3=moderate. All microscopic slides were evaluated and gross and microscopic findings were reported.

rhGDF-5: recombinant human Growth and Differentiation factor-5, a protein belonging to the TGF-β superfamily (morphogen)
blood urea nitrogen levels (5/6 nephrectomy rats): some effect on reducing blood urea nitrogen levels | renal injury score (histology scoring, H&E) (UUO induced renal injury): reduced renal structural damage; also recorded: reduced renal injury score | CCL2 gene expression [1]: decreased expression of CCL2; also recorded: prevents chemokine ligand 2 (CCL2) | PDGF gene expression [2]: decreased expression; also recorded: prevents | urine microalbumin / protein level in urine (diabetic rats): comparable efficacy on reducing urine micro albumine level; also recorded: comparable effect on reducing protein level in urine
